pIC50: −log10 of the molar value. Where two headings read alike, the source gives them in different places.
Experiments:
CACO-2 cell = experiment: Proliferation assay (crystal violet), CACO-2; type: cell-based; conditions: Homo sapiens, 96 h; CACO-2, 4 days incubation; read-out: Inhibition of CACO-2 cell proliferation IC50
Description: (§1) After 24 hours, the cells of one plate (zero-point plate) were stained with crystal violet (see below), while the medium of the other plates was replaced by fresh culture medium (200 µL), to which the test substances were added in various concentrations (0 µM, as well as in the range of 0.001-10 µM; the final concentration of the solvent dimethyl sulfoxide was 0.5%). The cells were incubated for 4 days in the presence of test substances. Cell proliferation was determined by staining the cells with crystal violet: the cells were fixed by adding 20 µL/measuring point of an 11% glutaric aldehyde solution for 15 minutes at room temperature. After three washing cycles of the fixed cells with water, the plates were dried at room temperature. The cells were stained by adding 100 µL/measuring point of a 0.1% crystal violet solution (pH 3.0). After three washing cycles of the stained cells with water, the plates were dried at room temperature. The dye was dissolved by adding 100 µL/measuring point of a 10% acetic acid solution. […] The change of cell number, in percent, was calculated by normalization of the measured values to the absorbance values of the zero-point plate (=0%) and the absorbance of the untreated (0 µM) cells (=100%). The IC50 values were determined by means of a 4 parameter fit using the company's own software.

B 16F 10 cell = experiment: Proliferation assay (crystal violet), B16F10; type: cell-based, mouse; conditions: B16F10, 4 days incubation, read-out: Inhibition of B 16F 10 cell proliferation IC50
Description: as §1

HeLa/MaTu/ADR cell = experiment: Proliferation assay (crystal violet), HeLa/MaTu/ADR; type: cell-based, human; conditions: HeLa/MaTu/ADR (multidrug-resistant), 4 days incubation, read-out: Inhibition of HeLa/MaTu/ADR cell proliferation IC50
Description: as §1

DU145 cell = experiment: Proliferation assay (crystal violet), DU145; type: cell-based, human; conditions: DU145, 4 days incubation, read-out: Inhibition of DU145 cell proliferation IC50
Description: as §1

H460 cell = experiment: Proliferation assay (crystal violet), H460; type: cell-based; conditions: Homo sapiens, NCI-H460, 96 h; H460, 4 days incubation; read-out: Inhibition of H460 cell proliferation (activity range) IC50
Description: as §1

HeLa cell = experiment: Proliferation assay (crystal violet), HeLa; type: cell-based, human; conditions: 4 days incubation, read-out: Inhibition of HeLa cell proliferation IC50
Description: as §1

[1] = Equilibrium shake flask solubility assay; type: physicochemical; conditions: phosphate buffer pH 6.5, 24 hrs, room temperature; 1440 min
Description: 4. Equilibrium Shake Flask Solubility Assay:
The thermodynamic solubility of compounds in water was determined by an equilibrium shake flask method (see for example: E.H. Kerns, L. Di: Drug-like Properties: Concepts, Structure Design and Methods, 276-286, Burlington, MA, Academic Press, 2008). A saturated solution of the drug was prepared and the solution was mixed for 24 h to ensure that equilibrium was reached. The solution was centrifuged to remove the insoluble fraction and the concentration of the compound in solution was determined using a standard calibration curve.
To prepare the sample, 2 mg solid compound was weighed in a 4 mL glass vial. 1 mL phosphate buffer pH 6.5 was added. The suspension was stirred for 24 hrs at room temperature. The solution was centrifuged afterwards. To prepare the sample for the standard calibration, 2 mg solid sample was dissolved in 30 mL acetonitrile. After sonification the solution was diluted with water to 50 mL.. Sample and standards were quantified by HPLC with UV-detection. For each sample two injection volumes (5 and 50 µl) in triplicates were made. Three injection volumes (5 µl, 10 µl and 20 µl) were made for the standard.
The areas of sample- and standard injections as well as the calculation of the solubility value (in mg/l) were determined by using HPLC software (Waters Empower 2 FR).

| SMILES | pIC50 (CACO-2 cell) | pIC50 (B 16F 10 cell; Mus musculus, B16-F10, 96 h) | pIC50 (HeLa/MaTu/ADR cell; Homo sapiens, 96 h) | pIC50 (DU145 cell; Homo sapiens, DU-145, 96 h) | pIC50 (H460 cell) | pIC50 (HeLa cell; Homo sapiens, 96 h) | other results |
| --- | --- | --- | --- | --- | --- | --- | --- |
| CS(=N)(=O)Cc1cccc(Nc2ncnc(-c3ccc(F)cc3OCc3ccccc3)n2)c1 (racemic) [Compound 6, (rac)-4-[2-(Benzyloxy)-4-fluorophenyl]-N-{3-[(S-methylsulfonimidoyl)methyl]phenyl}-1,3,5-triazin-2-amine] | 6.57 | 6.60 | 6.70 | 6.74 | 6.80 | > 7.00 | – |
| COc1cc(F)ccc1-c1ncnc(Nc2cccc(CS(C)(=N)=O)c2)n1 (single isomer, unassigned; (+)) [Compound 4, (+)-4-(4-Fluoro-2-methoxyphenyl)-N-{3-[(S-methylsulfonimidoyl)methyl]phenyl}-1,3,5-triazin-2-amine] | – | – | – | – | – | – | pIC50 (B 16F 10 cell): 6.00; pIC50 (HeLa/MaTu/ADR cell): 6.36; Solubilty in mg/l. (thermodynamic solubility in water) [1]: 479 µg/mL; pIC50 (DU145 cell): 6.17; pIC50 (HeLa cell): 6.01 |
| COc1cc(F)ccc1-c1ncnc(Nc2cccc(CS(C)(=N)=O)c2)n1 (racemic) [Compound 2, (rac)-4-(4-Fluoro-2-methoxyphenyl)-N-{3-[(S-methylsulfonimidoyl)methyl]phenyl}-1,3,5-triazin-2-amine] | – | – | – | – | – | 5.96 | – |
| CCOC(=O)N=S(C)(=O)Cc1cccc(Nc2ncnc(-c3cc(F)c(F)cc3OC)n2)c1 (racemic) [Compound 9, (rac)-Ethyl [(3-{[4-(4,5-difluoro-2-methoxyphenyl)-1,3,5-triazin-2-yl]amino}benzyl)(methyl)oxido-λ^6-sulfanylidene]carbamate] | – | – | – | – | – | 6.40 | – |
| COc1cc(F)ccc1-c1ncnc(Nc2cccc(CS(C)(=N)=O)c2)n1 (single isomer, unassigned; (-)) [Compound 3, (-)-4-(4-Fluoro-2-methoxyphenyl)-N-{3-[(S-methylsulfonimidoyl)methyl]phenyl}-1,3,5-triazin-2-amine] | – | 6.00 | – | 6.13 | – | 5.96 | pIC50 (HeLa/MaTu/ADR cell; Homo sapiens, HeLa, 96 h): 6.40 |
| CCOC(=O)N=S(C)(=O)Cc1cccc(Nc2ncnc(-c3ccc(F)cc3OC)n2)c1 (racemic) [Compound 1, (rac)-Ethyl [(3-{[4-(4-fluoro-2-methoxyphenyl)-1,3,5-triazin-2-yl]amino}benzyl)(methyl)oxido-λ^6-sulfanylidene]carbamate] | 6.41 | 6.44 | 6.42 | 6.41 | 6.44 | 6.00 | – |

From EP2527332A1, “4-Aryl-N-phenyl-1,3,5-triazin-2-amines containing a sulfoximine group as CDK9 inhibitors” (Bayer Intellectual Property GmbH, priority 2011, dated 2012)
